The values below come from PubChem BioAssay AID328 (DTP/NCI, 2004).

The test system of the test is BDF1 mice, P388 leukemia ip, median survival T/C. As to the kind of experiment: NCI In Vivo Anticancer Drug Screen. Data for tumor model P388 Leukemia (intraperitoneal) in B6D2F1 (BDF1) mice. As to conditions: endpoint: median survival time, higher = longer survival. The method in brief:
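Antitumour effect was judged in vivo: survival in drug-treated mice, normalised to that of vehicle-dosed controls, gives the reported T/C.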

The mark [1] stands for this setting: dose: 150.0 mg/kg/injection, schedule: Q01DX009 (ip), vehicle: saline with Tween-80.
The mark [2] stands for this setting: dose: 25.0 mg/kg/injection, schedule: Q01DX009 (ip), vehicle: saline with Tween-80.
Where [3] appears, read: dose: 50.0 mg/kg/injection, schedule: Q01DX009 (ip), vehicle: saline with Tween-80.
[4] abbreviates: dose: 100.0 mg/kg/injection, schedule: Q01DX009 (ip), vehicle: saline with Tween-80.
Where [5] appears, read: dose: 200.0 mg/kg/injection, schedule: Q01DX009 (ip), vehicle: saline with Tween-80.
The mark [6] stands for this setting: dose: 100.0 mg/kg/injection, schedule: Q04DX003 (ip), vehicle: Klucel (hydroxypropylcellulose) (HPC).
[7] abbreviates: dose: 200.0 mg/kg/injection, schedule: Q04DX003 (ip), vehicle: Klucel (hydroxypropylcellulose) (HPC).
Where [8] appears, read: dose: 400.0 mg/kg/injection, schedule: Q04DX003 (ip), vehicle: Klucel (hydroxypropylcellulose) (HPC).
The mark [9] stands for this setting: dose: 200.0 mg/kg/injection, schedule: Q04DX003 (ip), vehicle: saline.
Setting [10] is: dose: 400.0 mg/kg/injection, schedule: Q04DX003 (ip), vehicle: saline.
The mark [11] stands for this setting: dose: 200.0 mg/kg/injection, schedule: Q01DX009 (ip), vehicle: saline.
The mark [12] stands for this setting: dose: 400.0 mg/kg/injection, schedule: Q01DX009 (ip), vehicle: saline.

“And” between values parts separate entries of the source, which are not always exact repeats. Equal values may be shown once. Inconclusive results and toxic doses are left out.

In the case of `C=C1C(=O)C2(C)OC2(C)C1C(=O)O` (configuration not stated), the T/C runs as follows: (dose: 1.25 mg/kg/injection, schedule: Q01DX009 (ip), vehicle: Klucel (hydroxypropylcellulose) (HPC)) 98 % of control; (dose: 2.5 mg/kg/injection, schedule: Q01DX009 (ip), vehicle: Klucel (hydroxypropylcellulose) (HPC)) 114 % of control; (dose: 5.0 mg/kg/injection, schedule: Q01DX009 (ip), vehicle: Klucel (hydroxypropylcellulose) (HPC)) 120 % of control; (dose: 10.0 mg/kg/injection, schedule: Q01DX009 (ip), vehicle: Klucel (hydroxypropylcellulose) (HPC)) 109 % of control.

Take `CCOC(=O)C/C(C)=N/NC(=O)C(=O)N/N=C(\C)CC(=O)OCC`: the T/C (dose: 75.0 mg/kg/injection, schedule: Q01DX009 (ip), vehicle: saline with Tween-80) was 113 % of control; the T/C under setting [1] is 96 % of control; the T/C (dose: 300.0 mg/kg/injection, schedule: Q01DX009 (ip), vehicle: saline with Tween-80) is 96 % of control.

As to `Cc1ccc2c(c1)Sc1ccc3ccccc3c1N2`, the T/C (dose: 100.0 mg/kg/injection, schedule: Q04DX003 (ip), vehicle: saline sonified) is 113 % of control; the T/C (dose: 200.0 mg/kg/injection, schedule: Q04DX003 (ip), vehicle: saline sonified) is 90 % of control; the T/C (dose: 400.0 mg/kg/injection, schedule: Q04DX003 (ip), vehicle: saline sonified) was 100 % of control.

For `CCOc1c(Cl)cc(Cl)cc1C(c1ccc(Cl)cc1S(=O)(=O)O)c1cc(Cl)cc(Cl)c1OCC`, the T/C is, setting by setting: under setting [2], 108 % of control; under setting [3], 116 % of control.

With `COc1ccc(C=NCCN=Cc2ccc(OC)c(OC)c2)cc1OC`, the T/C is 105 % of control under setting [4]; 95 % of control (dose: 100.0 mg/kg/injection, schedule: Q04DX003 (ip), vehicle: saline with Tween-80); 100 % of control under setting [5]; 91 % of control (dose: 200.0 mg/kg/injection, schedule: Q04DX003 (ip), vehicle: saline with Tween-80); 100 % of control (dose: 400.0 mg/kg/injection, schedule: Q01DX009 (ip), vehicle: saline with Tween-80); 91 % of control (dose: 400.0 mg/kg/injection, schedule: Q04DX003 (ip), vehicle: saline with Tween-80).

Turning to `CCOC(=O)N1Cc2cc3ccccc3nc2C1CC(=O)O` (configuration not stated), the T/C runs as follows: under setting [6], 100 % of control; under setting [7], 100 % of control; under setting [8], 104 % of control.

Turning to `NC(=O)c1ccc(Cl)c(Cl)c1`, the T/C reads like this: (dose: 100.0 mg/kg/injection, schedule: Q04DX003 (ip), vehicle: other) 116 % of control; (dose: 200.0 mg/kg/injection, schedule: Q04DX003 (ip), vehicle: other) 122 % of control.

With `NCCCC(=O)O`, the T/C reads like this: (dose: 100.0 mg/kg/injection, schedule: Q01DX001 (ip), vehicle: saline) 100 % of control; (dose: 100.0 mg/kg/injection, schedule: Q04DX003 (ip), vehicle: saline) 109 % of control; (dose: 200.0 mg/kg/injection, schedule: Q01DX001 (ip), vehicle: saline) 100 % of control; under setting [9], 86 % of control; (dose: 400.0 mg/kg/injection, schedule: Q01DX001 (ip), vehicle: saline) 90 % of control; under setting [10], 118 % of control.

In the case of `CCCC(=O)Oc1ccc(/C=N/NC(N)=S)nc1`, the T/C is 172 % of control (dose: 44.0 mg/kg/injection, schedule: Q01DX009 (ip), vehicle: saline with Tween-80); 173 % of control under setting [3]; 183 % of control (dose: 66.0 mg/kg/injection, schedule: Q01DX009 (ip), vehicle: saline with Tween-80); 201 % of control and 211 % of control under setting [4]; 227 % of control under setting [1]; 115 % of control under setting [5].

For `CCOC1=CCCCC1`, the T/C is, setting by setting: (dose: 100.0 mg/kg/injection, schedule: Q01DX009 (ip), vehicle: saline) 113 % of control; under setting [11], 115 % of control and 122 % of control; under setting [12], 118 % of control.

As to `COC(=O)[C@@]12OC[C@]34[C@H]([C@@H](O)[C@@H]1O)[C@@]1(C)CC(=O)C(O)=C(C)[C@@H]1C[C@H]3OC(=O)[C@H](OC(=O)c1ccccc1)[C@@H]24`, the T/C is, setting by setting: (dose: 31.0 micrograms/kg/injection, schedule: Q01DX009 (ip), vehicle: saline + alcohol) 86 % of control and 90 % of control and 100 % of control; (dose: 61.0 micrograms/kg/injection, schedule: Q01DX009 (ip), vehicle: saline + alcohol) 100 % of control; (dose: 62.0 micrograms/kg/injection, schedule: Q01DX009 (ip), vehicle: saline + alcohol) 113 % of control; (dose: 125.0 micrograms/kg/injection, schedule: Q01DX009 (ip), vehicle: saline + alcohol) 95 % of control and 109 % of control; (dose: 250.0 micrograms/kg/injection, schedule: Q01DX009 (ip), vehicle: saline + alcohol) 100 % of control and 109 % of control; (dose: 500.0 micrograms/kg/injection, schedule: Q01DX009 (ip), vehicle: saline + alcohol) 100 % of control and 113 % of control. Further, the T/C was 100 % of control and 118 % of control (dose: 1000.0 micrograms/kg/injection, schedule: Q01DX009 (ip), vehicle: saline + alcohol); 109 % of control (dose: 4000.0 micrograms/kg/injection, schedule: Q01DX009 (ip), vehicle: saline + alcohol).

For `O=C(NS(=O)(=O)c1ccc(Cl)cc1)c1ccccc1`, the T/C was 99 % of control (dose: 12.5 mg/kg/injection, schedule: Q01DX009 (ip), vehicle: saline with Tween-80); 100 % of control and 109 % of control under setting [2]; 103 % of control and 120 % of control under setting [3]; 100 % of control under setting [4]; 90 % of control under setting [5].

As for `COc1cc(OC)c(Br)c(OC)c1`, the T/C is 100 % of control (dose: 100.0 mg/kg/injection, schedule: Q01DX009 (ip), vehicle: Klucel (hydroxypropylcellulose) (HPC)); 112 % of control under setting [6]; 100 % of control (dose: 200.0 mg/kg/injection, schedule: Q01DX009 (ip), vehicle: Klucel (hydroxypropylcellulose) (HPC)); 104 % of control under setting [7]; 116 % of control (dose: 400.0 mg/kg/injection, schedule: Q01DX009 (ip), vehicle: Klucel (hydroxypropylcellulose) (HPC)); 100 % of control under setting [8].

Take `ClCCCN1CCN(CCCCl)CC1`: the T/C is 101 % of control (dose: 6.25 mg/kg/injection, schedule: Q01DX009 (ip), vehicle: distilled water + alcohol); 99 % of control (dose: 12.5 mg/kg/injection, schedule: Q01DX009 (ip), vehicle: distilled water + alcohol); 115 % of control (dose: 25.0 mg/kg/injection, schedule: Q01DX009 (ip), vehicle: distilled water + alcohol); 171 % of control (dose: 100.0 mg/kg/injection, schedule: Q01DX009 (ip), vehicle: distilled water + alcohol).

On to `Cn1cnc([N+](=O)[O-])c1Sc1nc(N)nc2c1ncn2C1CC(O)C(CO)O1` (configuration not stated), for which the T/C is, setting by setting: (dose: 6.25 mg/kg/injection, schedule: Q01DX005 (ip), vehicle: Klucel (hydroxypropylcellulose) (HPC)) 155 % of control; (dose: 6.25 mg/kg/injection, schedule: Q01DX009 (ip), vehicle: saline) 161 % of control; (dose: 25.0 mg/kg/injection, schedule: Q01DX009 (ip), vehicle: saline) 114 % of control and 95 % of control; (dose: 50.0 mg/kg/injection, schedule: Q01DX005 (ip), vehicle: Klucel (hydroxypropylcellulose) (HPC)) 86 % of control; (dose: 50.0 mg/kg/injection, schedule: Q01DX009 (ip), vehicle: saline) 107 % of control; (dose: 150.0 mg/kg/injection, schedule: Q01DX009 (ip), vehicle: saline) 107 % of control. Also, the T/C under setting [11] is 109 % of control and 110 % of control; the T/C under setting [9] is 118 % of control; the T/C under setting [12] was 91 % of control and 116 % of control; the T/C under setting [10] was 113 % of control.

On to `COc1cc(OC)cc(OC)c1`, for which the T/C is, setting by setting: (dose: 40.0 mg/kg/injection, schedule: Q01DX009 (ip), vehicle: Klucel (hydroxypropylcellulose) (HPC)) 108 % of control; (dose: 80.0 mg/kg/injection, schedule: Q01DX009 (ip), vehicle: Klucel (hydroxypropylcellulose) (HPC)) 100 % of control; (dose: 160.0 mg/kg/injection, schedule: Q01DX009 (ip), vehicle: Klucel (hydroxypropylcellulose) (HPC)) 106 % of control.

As for `CC(C)CSP(=S)(c1cc(Cl)ccc1Cl)c1cc(Cl)ccc1Cl`, the T/C by setting is: (dose: 50.0 mg/kg/injection, schedule: Q01DX009 (ip), vehicle: other) 102 % of control; (dose: 100.0 mg/kg/injection, schedule: Q01DX009 (ip), vehicle: other) 101 % of control; (dose: 200.0 mg/kg/injection, schedule: Q01DX009 (ip), vehicle: other) 105 % of control.
